Experimental data as given in ChEMBL document CHEMBL1156829 (Proc Natl Acad Sci U S A, 2008).

How the values were obtained:
[1] = NOVARTIS: Cytotoxicity against human hepatocellular carcinoma cell line (Huh7); format: toxicity, cell-based, Huh-7; details: Huh7 cells (hepatocellular carcinoma cell line)
Plasmodium falciparum [2] = test: NOVARTIS: Inhibition of Plasmodium falciparum W2 (drug-resistant) proliferation in erythrocyte-based infection assay; format: functional, organism-based; details: Plasmodium falciparum, W2; read-out: EC50
Plasmodium falciparum [3] = test: NOVARTIS: Inhibition of Plasmodium falciparum 3D7 (drug-susceptible) proliferation in erythrocyte-based infection assay; format: functional, organism-based; details: Plasmodium falciparum, 3D7

Row | Compound | CC50 [1] [nM] | EC50 (Plasmodium falciparum [2]) [nM] | EC50 (Plasmodium falciparum [3]) [nM]
1 | CCC(CO)Nc1nccnc1-c1ccccc1Oc1ccccc1 (stereo not drawn) | > 100000 | 3560 | 4540
2 | O=C(Nc1ccc(-c2nnc(-c3ccccc3)o2)cc1)c1ccc(Br)cc1 | > 10000 | > 1250 | 750
3 | CCOc1cc(Br)cc(C=NNC(=O)COc2cccc(C)c2)c1O | > 46200 | > 12500 | 7520
4 | Cc1ccccc1/C=C1/SC(=Nc2ccccc2)NC1=O | > 10000 | > 1420 | > 528
5 | Oc1ccc(C2Nc3ccc4ccccc4c3C3C=CCC32)cc1 (stereo not drawn) | > 100000 | 292 | 812
6 | OCCNc1nc(Nc2ccc(Br)cc2)nc2ccccc12 | 12000 | 566 | 490
7 | CCCn1c(C=NNc2nc3ccccc3[nH]2)nc2ccccc21 | 62800 | 5110 | 5560
8 | Cc1onc(-c2ccccc2)c1C(=O)N1CCC(CNc2c(-c3ccoc3)nc3ccccn23)CC1 | 96600 | 225 | 1760
9 | S=C(Nc1ccccc1)N1CCCN(c2nc3ccc(Cl)cc3s2)CC1 | > 86900 | 370 | 506
10 | OCC1CCCCN1Cc1cc(-c2ccccc2)ccc1O (stereo not drawn) | > 10000 | < 23.2 | 1030
11 | CC(=O)N(C1=C(N2CCOCC2)C(=O)c2ccccc2C1=O)c1ccc(F)c(F)c1 | 3480 | 57.5 | 74.3
12 | CC(C)(C)NS(=O)(=O)c1cc(Cl)ccc1Cl | > 10900 | 730 | > 1250
13 | Oc1ccc(Nc2nc(N3CCCC3)c3ccccc3n2)cc1 | > 10000 | 926 | 584
14 | CN(c1ccc(Cl)cc1)S(=O)(=O)c1ccc2[nH]cc(C(=O)NCCC3=CCCCC3)c(=O)c2c1 | > 10000 | > 911 | > 1250
15 | Cc1ncc([N+](=O)[O-])n1CCOC(=O)c1c(NC(=O)c2ccccc2)sc2c1CCCC2 | > 100000 | 2000 | 2600
16 | Cc1cc(NCCN2CCCCC2)c2ccc3ccccc3c2n1 | 15600 | 81 | 44.1
17 | Cc1ccccc1N=c1oc2ccc3ccccc3c2cc1-c1nc2ccccc2[nH]1 | > 2100 | > 1250 | > 997
18 | CCN(CC)c1ccc(/C=C/C23NC(=O)CCN2c2ccc(C)cc2C3(C)C)cc1 (stereo not drawn) | > 10100 | 1210 | 1620

Row | Compound | CC50 [1] [nM] | EC50 (Plasmodium falciparum [2]) [nM] | EC50 (Plasmodium falciparum [3]) [nM]
19 | CC(C)CNC(=O)c1cnc(NCCC2CCCN2C)nc1NC1CCCC1 (stereo not drawn) | > 10000 | 1140 | 908
20 | Cc1ccc(C)c(Nc2nc3c(s2)CCCC3)c1 | > 100000 | 4500 | > 12500
21 | O=C(O)CS(=O)(=O)c1ccc(C(=O)NCC(c2cccnc2)N2CCOCC2)cn1 (stereo not drawn) | > 10000 | 131 | > 876
22 | C=CCNC(=O)c1ccc2c(c1)N=CN(CCOc1ccccc1)C2 | > 10000 | 419 | 441
23 | COc1ccc(/C=C/c2ccc3ccccc3[n+]2C)cc1 | > 10000 | 30.4 | 133
24 | CC(=O)N(Cc1ccc(F)cc1)C1=C(NCc2ccccc2)C(=O)c2ccccc2C1=O | > 10000 | 679 | 680
25 | Cc1cc(C)n2nc(-c3ccc(Cl)cc3)cc2n1 | > 10000 | > 1250 | > 685
26 | CCCN1CCC(N2C[C@@H](NCc3ccc4c(c3)c3ccccc3n4CC)C[C@H]2C(=O)NCC)CC1 | > 6380 | 323 | > 252
27 | Cc1cc(C)n(-c2ccc(NC(=O)C3CCN(Cc4cnc(C)s4)CC3)cc2)n1 | > 100000 | 840 | 811
28 | CCOC(=O)CSC1=Nc2ccccc2C2=NC(Cc3ccccc3)C(=O)N12 (stereo not drawn) | > 10000 | 407 | > 1250
29 | Fc1ccc(CCNc2ncnc3c2[nH]c2ccccc23)cc1 | 12000 | 133 | 257
30 | Nc1c(C(=O)c2ccc(Br)cc2)sc2nc(-c3cccnc3)ccc12 | > 13000 | > 1090 | 1300
31 | Cc1ccc(C2Sc3ccccc3NC3=C2C(=O)c2ccccc23)cc1 (stereo not drawn) | 68600 | 46.4 | 249
32 | CCOC(=O)C1=C(C)NC(=Cc2cc(C)n(-c3cccc(Br)c3)c2C)C1=O | > 100000 | 805 | 2880
33 | NNC(=O)CNC(c1ccccc1)c1cc(Br)ccc1NC(=O)c1ccccc1Br (stereo not drawn) | > 100000 | 453 | 342
34 | NC(=O)c1ccc(-n2nnnc2SCc2ccc(Cl)cc2)cc1 | > 100000 | > 12500 | 2830
35 | COc1ccc2sc(Nc3nc(-c4ccccn4)cs3)nc2c1 | 4400 | 125 | 118
36 | O=C(COc1cccc(Cl)c1)Nc1nccs1 | > 100000 | > 9290 | > 12500
